Converted amounts (≈) assume the structure as drawn.
Columns and labels:
M.tb strain H37Rv [1] = assay: MABA: inhibition of growth of M.tb H37Rv under aerobic (replicating) conditions; format: cell-based; conditions: for anti-M.tb activity (in words): M.tb H37Rv, comparison with 1
M.tb strain H37Rv [2] = assay: LORA: inhibition of growth of M.tb H37Rv under non-replicating conditions; format: cell-based; conditions: Mycobacterium tuberculosis
Description: The compounds were evaluated for their inhibition of growth (measured as MIC90 values in µg/mL) against M.tb (strain H37Rv) under both replicating (MABA)[16] or non-replicating (LORA)[17] conditions. […] In a search for less lipophilic analogues, we prepared and evaluated compounds where this phenyl B-ring unit was replaced with different heterocycles of varying lipophilicity (Table 1).

M.tb strain H37Rv [3] = assay: MICs determined at Tibotec (slightly different protocol); format: cell-based; conditions: Mycobacterium tuberculosis, MICs determined at Tibotec (Mechelen, Belgium), read-out: MIC90 (MABA, footnote d)
Description: Given that good activity had been reported for furan 2 (albeit in M. smegmatis),[11] we evaluated a series of both 2- and 3-furyl analogues bearing different C-unit substituents.

in vitro = conditions: human, human liver microsomes
[4] = human, microsomes
CYP 3A4 = CYP 3A4 (Homo sapiens, UniProt P08684); assay: Inhibition of CYP 3A4; format: in vitro ADME; conditions: 20 min exposure
CYP 3A4, sequence (P08684 whole entry, species assumed): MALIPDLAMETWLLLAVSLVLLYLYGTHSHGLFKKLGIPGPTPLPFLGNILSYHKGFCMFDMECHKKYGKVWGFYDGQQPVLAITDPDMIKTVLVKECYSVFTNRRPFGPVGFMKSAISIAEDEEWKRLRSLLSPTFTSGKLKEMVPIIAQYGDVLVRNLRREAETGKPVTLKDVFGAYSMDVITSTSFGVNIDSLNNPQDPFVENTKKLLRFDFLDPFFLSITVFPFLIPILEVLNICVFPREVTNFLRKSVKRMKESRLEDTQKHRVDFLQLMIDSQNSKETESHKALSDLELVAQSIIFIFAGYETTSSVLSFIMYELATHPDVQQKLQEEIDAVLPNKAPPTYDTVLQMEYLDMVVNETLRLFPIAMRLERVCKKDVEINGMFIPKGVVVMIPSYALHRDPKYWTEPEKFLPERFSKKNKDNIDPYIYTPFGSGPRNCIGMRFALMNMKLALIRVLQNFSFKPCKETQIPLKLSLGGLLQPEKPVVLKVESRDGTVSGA

[5] = rat, in vivo
[6] = Mycobacterium tuberculosis, H37RV

## COc1nc2ccc(Br)cc2cc1[C@@H](c1cncc(C)c1)[C@@](O)(CCN(C)C)c1cccc(C#N)c1 [Compound 41]
M.tb strain H37Rv [1]; [6]
  MIC90: 1.32 µg/mL (≈ 2.42 µM)
M.tb strain H37Rv [2]
  MIC90: 3.38 µg/mL (≈ 6.2 µM)

## COc1nc2ccc(Br)cc2cc1C(c1ccco1)C(O)(CCN(C)C)c1cccc(F)c1 (stereo not drawn) [Compound 15]
M.tb strain H37Rv [3]
  MIC90: 0.74 µg/mL (≈ 1.44 µM)

## COc1nc2ccc(C#N)cc2cc1C(c1ccco1)C(O)(CCN(C)C)c1cccc(F)c1 (stereo not drawn) [Compound 16]
M.tb strain H37Rv [3]
  MIC90: 1.79 µg/mL (≈ 3.9 µM)

## COc1nc2ccc(Br)cc2cc1[C@@H](c1ccnc(OC)c1OC)[C@@](O)(CCN(C)C)c1cccc(C#N)c1 [Compound 49]
M.tb strain H37Rv [1]; [6]
  MIC90: 0.13 µg/mL (≈ 0.22 µM)
In vitro
  half-life: 37 min
[4]
  Clint: 19 µL/min/mg/protein
M.tb strain H37Rv [2]
  MIC90: 0.21 µg/mL (≈ 0.355 µM)
CYP 3A4
  IC50: > 10 µM
[5]
  F(%) oral bioavailability: 68%
  oral bioavailability (in words): comparable to that of 1

## COc1ccc([C@H](c2cc3cc(Br)ccc3nc2OC)[C@@](O)(CCN(C)C)c2cccnc2OC)s1 [Compound 13]
M.tb strain H37Rv [1]
  anti-M.tb activity (in words): effective inhibitors
M.tb strain H37Rv [1]; [6]
  MIC90: 0.24 µg/mL (≈ 0.419 µM)
M.tb strain H37Rv [2]
  MIC90: 0.53 µg/mL (≈ 0.926 µM)

## COc1nc2ccc(Br)cc2cc1[C@@H](c1ccc(C)s1)[C@@](O)(CCN(C)C)c1cccnc1OC [Compound 12]
M.tb strain H37Rv [1]
  anti-M.tb activity (in words): effective inhibitors
M.tb strain H37Rv [1]; [6]
  MIC90: 0.22 µg/mL (≈ 0.395 µM)
M.tb strain H37Rv [2]
  MIC90: 0.52 µg/mL (≈ 0.934 µM)

## CCN(CC)c1ccc([C@H](c2cc3cc(Br)ccc3nc2OC)[C@@](O)(CCN(C)C)c2cccc(F)c2)cn1 [Compound 37]
M.tb strain H37Rv [1]; [6]
  MIC90: 0.02 µg/mL (≈ 0.0336 µM)

## COc1nc2ccc(Br)cc2cc1[C@@H](c1cc(C)sc1C)[C@@](O)(CCN(C)C)c1cccc(C#N)c1 [Compound 3, 3-(1-(6-Bromo-2-methoxyquinolin-3-yl)-4-(dimethylamino)-1-(2,5-dimethylthiophen-3-yl)-2-hydroxybutan-2-yl)benzonitrile]
M.tb strain H37Rv [1]; [6]
  MIC90: 0.12 µg/mL (≈ 0.213 µM)
M.tb strain H37Rv [1]; Mycobacterium tuberculosis, H37RV, read-out: MIC90 MABA
  MIC: 0.05 to 0.58 µg/mL (≈ 0.0886 to 1.03 µM)

## COc1cccc(C(O)(CCN(C)C)C(c2ccco2)c2cc3cc(Br)ccc3nc2OC)c1OC (stereo not drawn) [Compound 18]
M.tb strain H37Rv [3]
  MIC90: 0.71 µg/mL (≈ 1.28 µM)

## COc1nc2ccc(Br)cc2cc1C(c1ccco1)C(O)(CCN(C)C)c1ccccn1 (stereo not drawn) [Compound 20]
M.tb strain H37Rv [3]
  MIC90: 1.95 µg/mL (≈ 3.93 µM)

## COc1ncccc1C(c1cc2cc(Br)ccc2nc1OC)C(O)(CCN(C)C)c1cccc(F)c1 (stereo not drawn) [Compound 29]
M.tb strain H37Rv [3]
  MIC90: 0.12 µg/mL (≈ 0.216 µM)

## COc1ncccc1[C@H](c1cc2cc(C#N)ccc2nc1OC)[C@@](O)(CCN(C)C)c1cccc(C#N)c1 [Compound 34]
M.tb strain H37Rv [1]; [6]
  MIC90: 0.38 µg/mL (≈ 0.749 µM)
M.tb strain H37Rv [2]
  MIC90: 0.82 µg/mL (≈ 1.62 µM)

## COc1nc2ccc(Br)cc2cc1C(c1ccco1)C(O)(CCN(C)C)c1cccc(C#N)c1 (stereo not drawn) [Compound 21]
M.tb strain H37Rv [3]
  MIC90: 1.96 µg/mL (≈ 3.77 µM)

## COc1ncccc1[C@H](c1cc2cc(Br)ccc2nc1OC)[C@@](O)(CCN(C)C)c1cccc(C)c1 [Compound 30]
M.tb strain H37Rv [1]; [6]
  MIC90: 0.13 µg/mL (≈ 0.236 µM)
M.tb strain H37Rv [2]
  MIC90: 0.25 µg/mL (≈ 0.454 µM)

## COc1nc2ccc(Br)cc2cc1[C@@H](c1ccc(SC)nc1)[C@@](O)(CCN(C)C)c1cccc(F)c1 [Compound 38]
M.tb strain H37Rv [1]; [6]
  MIC90: 0.14 µg/mL (≈ 0.245 µM)
M.tb strain H37Rv [2]
  MIC90: 0.37 µg/mL (≈ 0.649 µM)

## COc1nc2ccc(Br)cc2cc1C(c1ccco1)C(O)(CCN(C)C)c1cccc2c1OCO2 (stereo not drawn) [Compound 19]
M.tb strain H37Rv [3]
  MIC90: 0.69 µg/mL (≈ 1.28 µM)

## COc1nc2ccc(Br)cc2cc1C(c1ccc(C)s1)C(O)(CCN(C)C)c1cccc(F)c1 (stereo not drawn) [Compound 11]
M.tb strain H37Rv [3]
  MIC90: 0.47 µg/mL (≈ 0.865 µM)

## COc1nc2ccc(Br)cc2cc1C(c1ccoc1)C(O)(CCN(C)C)c1cccc2c1OCO2 (stereo not drawn) [Compound 27]
M.tb strain H37Rv [3]
  MIC90: 0.9 µg/mL (≈ 1.67 µM)

## COc1nc2ccc(Br)cc2cc1[C@@H](c1ccnc(OC)c1OC)[C@@](O)(CCN(C)C)c1cccc(C)c1 [Compound 45]
M.tb strain H37Rv [1]; [6]
  MIC90: 0.02 µg/mL (≈ 0.0345 µM)
In vitro
  half-life: 52 min
[4]
  Clint: 13 µL/min/mg/protein
M.tb strain H37Rv [2]
  MIC90: 0.04 µg/mL (≈ 0.0689 µM)
CYP 3A4
  IC50: > 10 µM
[5]
  F(%) oral bioavailability: 40%

## COc1cccc(C(O)(CCN(C)C)C(c2ccoc2)c2cc3cc(Br)ccc3nc2OC)c1OC (stereo not drawn) [Compound 26]
M.tb strain H37Rv [3]
  MIC90: 1.16 µg/mL (≈ 2.09 µM)

## COc1cccc([C@](O)(CCN(C)C)[C@H](c2cncc(C)c2)c2cc3cc(Br)ccc3nc2OC)c1 [Compound 40]
M.tb strain H37Rv [1]; [6]
  MIC90: 1.9 µg/mL (≈ 3.45 µM)
M.tb strain H37Rv [2]
  MIC90: 2.2 µg/mL (≈ 4 µM)

## COc1nc2ccc(Br)cc2cc1C(c1ccoc1)C(O)(CCN(C)C)c1cccc(F)c1 (stereo not drawn) [Compound 22, 1-(6-Bromo-2-methoxyquinolin-3-yl)-4-(dimethylamino)-2-(3-fluorophenyl)-1-(furan-3-yl)butan-2-ol]
M.tb strain H37Rv [3]
  MIC90: 0.74 µg/mL (≈ 1.44 µM)

## COc1nc2ccc(Br)cc2cc1[C@@H](c1cncc(C)c1)[C@@](O)(CCN(C)C)c1cccc(F)c1 [Compound 42]
M.tb strain H37Rv [1]; [6]
  MIC90: 0.53 µg/mL (≈ 0.984 µM)
In vitro
  half-life: 12 min
[4]
  Clint: 56 µL/min/mg/protein
M.tb strain H37Rv [2]
  MIC90: 0.97 µg/mL (≈ 1.8 µM)
CYP 3A4
  IC50: 4.6 µM
[5]
  F(%) oral bioavailability: 24%

## COc1nc2ccc(Br)cc2cc1[C@@H](c1ccnc(OC)c1OC)[C@@](O)(CCN(C)C)c1cccc(F)c1 [Compound 44]
M.tb strain H37Rv [1]; [6]
  MIC90: 0.02 µg/mL (≈ 0.0342 µM)
M.tb strain H37Rv [2]
  MIC90: 0.07 µg/mL (≈ 0.12 µM)
